± gives the expanded uncertainty stated by the source.
How the values were obtained:
[1] = Liquid, Vibrating tube method
[2] = refractive index (Na D-line) (dimensionless); details: 293.15 K; 101.33 kPa; Liquid; Standard Abbe refractometry

CCCO [propan-1-ol]
[1]
Details	mass density [kg/m3]
313.15 K, 100 kPa	787.65 ± 4.7
313.15 K, 1020 kPa	788.65 ± 4.7
313.15 K, 2000 kPa	789.51 ± 4.7
313.15 K, 3010 kPa	790.39 ± 4.7
313.15 K, 4020 kPa	791.23 ± 4.8
313.15 K, 5020 kPa	792.09 ± 4.8
313.15 K, 6010 kPa	792.93 ± 4.8
313.15 K, 7020 kPa	793.75 ± 4.8
313.15 K, 8030 kPa	794.57 ± 4.8
313.15 K, 9010 kPa	795.39 ± 4.8
313.15 K, 10020 kPa	796.2 ± 4.8
313.15 K, 11010 kPa	796.99 ± 4.8
313.15 K, 12020 kPa	797.79 ± 4.8
313.15 K, 13010 kPa	798.57 ± 4.8
313.15 K, 14020 kPa	799.35 ± 4.8
313.15 K, 15030 kPa	800.12 ± 4.8
313.15 K, 16010 kPa	800.88 ± 4.8
313.15 K, 17020 kPa	801.63 ± 4.8
313.15 K, 18010 kPa	802.39 ± 4.8
313.15 K, 19020 kPa	803.13 ± 4.8
313.15 K, 20010 kPa	803.87 ± 4.8
323.15 K, 100 kPa	779.29 ± 4.7
323.15 K, 1020 kPa	780.33 ± 4.7
323.15 K, 2020 kPa	781.26 ± 4.7
323.15 K, 3010 kPa	782.17 ± 4.7
323.15 K, 4030 kPa	783.07 ± 4.7
323.15 K, 5010 kPa	783.96 ± 4.7
323.15 K, 6010 kPa	784.85 ± 4.7
323.15 K, 7000 kPa	785.72 ± 4.7
323.15 K, 8010 kPa	786.58 ± 4.7
323.15 K, 9020 kPa	787.44 ± 4.7
323.15 K, 10030 kPa	788.29 ± 4.7
323.15 K, 11020 kPa	789.12 ± 4.7
323.15 K, 12010 kPa	789.95 ± 4.7
323.15 K, 13020 kPa	790.78 ± 4.8
323.15 K, 14030 kPa	791.59 ± 4.8
323.15 K, 15030 kPa	792.41 ± 4.8
323.15 K, 16000 kPa	793.2 ± 4.8
323.15 K, 17010 kPa	794 ± 4.8
323.15 K, 18030 kPa	794.78 ± 4.8
323.15 K, 19030 kPa	795.56 ± 4.8
323.15 K, 20020 kPa	796.33 ± 4.8
333.15 K, 100 kPa	770.58 ± 4.6
333.15 K, 1030 kPa	771.74 ± 4.6
333.15 K, 2020 kPa	772.72 ± 4.6
333.15 K, 3020 kPa	773.69 ± 4.6
333.15 K, 4030 kPa	774.64 ± 4.7
333.15 K, 5020 kPa	775.59 ± 4.7
333.15 K, 6020 kPa	776.52 ± 4.7
333.15 K, 7010 kPa	777.45 ± 4.7
333.15 K, 8020 kPa	778.36 ± 4.7
333.15 K, 9010 kPa	779.27 ± 4.7
333.15 K, 10030 kPa	780.16 ± 4.7
333.15 K, 11020 kPa	781.05 ± 4.7
333.15 K, 12030 kPa	781.93 ± 4.7
333.15 K, 13010 kPa	782.79 ± 4.7
333.15 K, 14030 kPa	783.65 ± 4.7
333.15 K, 15030 kPa	784.5 ± 4.7
333.15 K, 16000 kPa	785.34 ± 4.7
333.15 K, 17030 kPa	786.17 ± 4.7
333.15 K, 18010 kPa	787 ± 4.7
333.15 K, 19020 kPa	787.81 ± 4.7
333.15 K, 20000 kPa	788.62 ± 4.7
343.15 K, 100 kPa	761.6 ± 4.6
343.15 K, 1010 kPa	762.86 ± 4.6
343.15 K, 2020 kPa	763.91 ± 4.6
343.15 K, 3000 kPa	764.93 ± 4.6
343.15 K, 4020 kPa	765.95 ± 4.6
343.15 K, 5020 kPa	766.96 ± 4.6
343.15 K, 6020 kPa	767.95 ± 4.6
343.15 K, 7030 kPa	768.93 ± 4.6
343.15 K, 8020 kPa	769.91 ± 4.6
343.15 K, 9000 kPa	770.86 ± 4.6
343.15 K, 10020 kPa	771.81 ± 4.6
343.15 K, 11030 kPa	772.74 ± 4.6
343.15 K, 12020 kPa	773.67 ± 4.7
343.15 K, 13010 kPa	774.59 ± 4.7
343.15 K, 14000 kPa	775.49 ± 4.7
343.15 K, 15010 kPa	776.39 ± 4.7
343.15 K, 16020 kPa	777.28 ± 4.7
343.15 K, 17020 kPa	778.16 ± 4.7
343.15 K, 18000 kPa	779.02 ± 4.7
343.15 K, 19020 kPa	779.89 ± 4.7
343.15 K, 20010 kPa	780.74 ± 4.7
353.15 K, 100 kPa	752.39 ± 4.5
353.15 K, 1010 kPa	753.65 ± 4.5
353.15 K, 2010 kPa	754.76 ± 4.5
353.15 K, 2990 kPa	755.86 ± 4.5
353.15 K, 4000 kPa	756.96 ± 4.5
353.15 K, 5000 kPa	758.04 ± 4.5
353.15 K, 6000 kPa	759.1 ± 4.6
353.15 K, 7010 kPa	760.14 ± 4.6
353.15 K, 7990 kPa	761.16 ± 4.6
353.15 K, 8990 kPa	762.2 ± 4.6
353.15 K, 9990 kPa	763.21 ± 4.6
353.15 K, 11010 kPa	764.2 ± 4.6
353.15 K, 12010 kPa	765.19 ± 4.6
353.15 K, 13000 kPa	766.16 ± 4.6
353.15 K, 14010 kPa	767.13 ± 4.6
353.15 K, 15010 kPa	768.07 ± 4.6
353.15 K, 16010 kPa	769.01 ± 4.6
353.15 K, 17010 kPa	769.94 ± 4.6
353.15 K, 17990 kPa	770.86 ± 4.6
353.15 K, 18990 kPa	771.76 ± 4.6
353.15 K, 19990 kPa	772.67 ± 4.6
363.15 K, 100 kPa	743.01 ± 4.5
363.15 K, 1020 kPa	744.08 ± 4.5
363.15 K, 2030 kPa	745.28 ± 4.5
363.15 K, 3030 kPa	746.48 ± 4.5
363.15 K, 4020 kPa	747.65 ± 4.5
363.15 K, 5000 kPa	748.81 ± 4.5
363.15 K, 6020 kPa	749.94 ± 4.5
363.15 K, 7020 kPa	751.07 ± 4.5
363.15 K, 8010 kPa	752.18 ± 4.5
363.15 K, 9000 kPa	753.27 ± 4.5
363.15 K, 10030 kPa	754.35 ± 4.5
363.15 K, 11010 kPa	755.41 ± 4.5
363.15 K, 12010 kPa	756.47 ± 4.5
363.15 K, 13010 kPa	757.5 ± 4.5
363.15 K, 14000 kPa	758.53 ± 4.6
363.15 K, 15020 kPa	759.54 ± 4.6
363.15 K, 16010 kPa	760.54 ± 4.6
363.15 K, 17030 kPa	761.52 ± 4.6
363.15 K, 18010 kPa	762.51 ± 4.6
363.15 K, 19000 kPa	763.47 ± 4.6
363.15 K, 20020 kPa	764.42 ± 4.6

Details	refractive index
[2]	1.3852 ± 0.004

Source: the NIST ThermoML archive (doi:10.1021/acs.jced.8b00554)
